This note sets out measurements from US20060111410A1, “Microbicide substances” (priority 2002, published 2006).

Assay [1] deals with Pseudomonas aeruginosa. The assay is described as follows: Synergism BIT/TMAD, amounts required to suppress growth. It counts as cell-based. The conditions noted are these: compound applied on its own. From the text: (§1) The observed synergism of the mixtures according to the invention can be determined by the following mathematical approach (cf. F. C. Kull, P. C. Elisman, H. D. Sylwestrowicz and P. K. Mayer, Appl. Microbiol. 9, 538 (1961): [formula] where • Qa=the amount of component A in the active compound mixture required to achieve the desired effect, i.e. no microbial growth, • QA=the amount of component A which, applied on its own, suppresses the growth of the microorganisms, • Qb=the amount of component B in the active compound mixture which supresses the growth of the microorganisms, and • QB=the amount of component B which, applied on its own, suppresses the growth of the microorganisms.
(§2) A synergistic index of SI<1 indicates a synergistic effect for the active compound mixture.
Test germ: Pseudomonas aeruginosa
(§3) The numbers in brackets indicate the weight ratio of the active compounds in the mixtures. [formula] A=BIT/B=TMAD

For assay [2], the system named is Pseudomonas fluorescens. The description is as above. It counts as cell-based. Conditions: compound applied on its own.
Text: as §1, §2
Test germ: Pseudomonas fluorescens
as §3

For the molecule `O=c1[nH]sc2ccccc12` [BIT, 1,2-benzisothiazolinone], the “Amounts of the pure active compounds required to suppress growth” value in assay [1] and in assay [2] was 20 ppm each time.
Turning to `O=C1N(CO)C2C(N1CO)N(CO)C(=O)N2CO` (stereo not shown) [TMAD, tetramethylolacetylenediurea], the “Amounts of the pure active compounds required to suppress growth” value in assay [1] and in assay [2] was 500 ppm each time.
